Values after ≈ are worked out from the molar mass of the structure shown.
Target: T1, tyrosinase enzyme from mushrooms
T1 construct: gene PPO1; native mushroom tyrosinase preparation
Assay: spectrophotometric L-DOPA oxidation, […] nm
Format: biochemical
Conditions: L-DOPA as substrate, sodium phosphate buffer pH 6.8, 37 °C, 10 min preincubation; unreliable: extrapolated below the lowest listed concentration 12.5 µg/mL

## O=c1cc(CO)occ1O [kojic acid]
  IC50: 8.25 ± 0.36 µg/mL (≈ 58.1 µM)

Reference: publication PMC7962536, “Isolation, Characterization, and Medicinal Potential of Polysaccharides of Morchella esculenta” (Molecules, 2021)
